From patent US20180194836A1, “PREVENTION OF METASTASIS AND RECURRENCE AFTER PRIMARY CANCER TREATMENT” (ENCYT TECHNOLOGIES, INC., priority 2014, published 2018)

Key:
HCT-15 cells = assay: Cell proliferation / cell subpopulations in HCT-15 cell line after cytokines and cytokine cocktails (flow cytometry); type: cell-based; parameters: unit not given here; details: HCT-15 cells after exposure to cytokine combinations
Method: Cell proliferation of cancer and/or cancer stem cell populations with selected cytokine and cytokine cocktails on serum starved colorectal carcinoma cell lines. Prior to incubation cells were stained with a cell proliferation dye, which binds stoichiometrically to DNA. Intensity of the dye decreased upon cell division thereby signifying cell proliferation.
Two authenticated colorectal carcinoma cell lines, HCT-15 and SW-620, were used to test the effect of different cytokine and cytokine cocktails, including IL-6, HGF, PGE-2, TGF-beta and MMP-9 alone or in a cocktail, on cell proliferation, EMT and cancer stem cell populations.
In order to evaluate stem cell populations, cells were synchronized by serum starvation for 72 hours before seeding in 24-well ultra low attachment plates at a density of 200,000 cells/well. Cells were then detached using trypsin EDTA and washed twice with PBS (without Calcium or Magnesium). A cell proliferation dye, eFluor 450 was used to label cells. Cells were grown with DMEM with high glucose and 2 mM Gluatmine without FBS in the presence of selected cytokines and or cytokine cocktails over a period of 72 hrs.
Cells that were grown in 5% serum were stained with the following antibody cocktails: CD24FITC, CD44PE and CD24FITC, CD133PE. Cells were also stained with a fixable live/dead efluor dye 506 to exclude dead cells. In parallel, cells were grown in the presence of 5% serum to evaluate CSC markers.
(§1) Cells were fixed in 1% Paraformaldehyde for 15 minutes at room temperature and run on Flowsight using 2 lasers (488 nm at 60 mW and 405 nm at 30 mW). For cell lines, 100,000 events were collected whilst for enriched CTCs all events were collected until the sample finished.
Flow cytometry data was analysed using IDEAS software. Double events, out of focus events, CD45PerePCy5.5 positive cells (in case of enriched CTCs), dead cells and non-nucleated events were eliminated from the fluorescence analysis of the cell population. FIG. 2 depicts scatterplots of flow cytometry experiments showing the enriched CTCs stained with an antibody containing CD44 after treatment with various cytokines and cytokine cocktails. Hoescht 33258 dye was used to stain nuclei in the case of the HCT-15 cell line and enriched CTCs. All experiments were stained with a fixable live/dead dye eFluor 506 to exclude dead cells.
To evaluate which cocktail combinations were most likely involved in cell proliferation of presumed quiescent stem cells or de-differentiated stein cell-like cells, four cytokines, IL-6, HGF, PGB-2 and TO were added singly or in pairs to HCT-15 cells. Results of combinations that influenced cell proliferation of HCT-15 cells in culture are presented. […] FIG. 4 depicts cell proliferation of subpopulations in the HCT-15 cell line after exposure to various cytokines and cytokine cocktails.

SW-620 cells = SW-620 cells treated with cytokines then Irinotecan; flow cytometry for stem cell markers and apoptosis; type: cell-based, human; details: SW-620, preliminary data
Method: SW-620 cells, a human colorectal adenocarcinoma cell line, were treated with cytokines alone or in combination including IL-6, TGF-beta, HGF, PGE-2, IL-6+PGE-2 and TGF-beta+HGF for 24 hours and compared to untreated SW-620 cells as control, Some treated and untreated SW-620 cells were then exposed to 2 μM Irinotecan for 36 hours at which point cells were harvested for flow cytometry to assess for stem cell markers and markers of apoptosis. The percentage of CD44+CD133− cells following treatment with various cytokine and cytokine cocktails is depicted in FIG. 10. Compared to non-cytokine treated cells, combinations with IL-6+PGE-2, and TGF-beta+HGF increased the number and percentage of cells that were CD44+CD133− as shown in FIG. 10 (stem cells). FIG. 11 depicts the percentage of CD44+CD133− cells following treatment with various cytokines and Irinotecan. Treatment with IL-6+Irinotecan and TGF+Irinotecan increased the percentage of CD44+CD133− stem cells to 2% (from zero in non-treated control cells) as shown in FIG. 11. FIG. 12 depicts the percentage of CD44+CD133− cells following treatment with various cytokine cocktails and Irinotecan. A combination of TGF+HGF+Irinotecan increased the percentage of CD44+CD133− stem cells to 2% (from zero in non-treated control cells) as shown in FIG. 12. […]

[1] = tested on: enriched circulating tumour cells (CTCs); assay: Cell proliferation / cancer stem cell markers in enriched CTCs from a patient with metastatic prostate cancer cultured with cytokine cocktails; type: cell-based, human; details: for EpCAM+CD133+ gated subpopulation / EpCAM+CD133− gated subpopulation / EpCAM−CD133+ gated subpopulation / EpCAM−CD133− gated subpopulation: enriched CTCs (metastatic prostate cancer patient) cultured with cytokine or cytokine cocktail, flow cytometry, antibody cocktail EpCAM A488, CD133 PE, CD45 PerCPCy5.5, percentages of gated subpopulations; for proliferation of EpCAM-CD44+ cell sub-population: no serum, no cytokines 2.2%; for Cell population EpCAM+CD44+ / Cell population EpCAM+CD44− / Cell population EpCAM−CD44+ / Cell population EpCAM−CD44−: metastatic prostate cancer patient, cell culture period 8 days
Method: as §1
Flow cytometry data was analysed using IDEAS software. Double events, out of focus events, CD45PerePCy5.5 positive cells (in case of enriched CTCs), dead cells and non-nucleated events were eliminated from the fluorescence analysis of the cell population. FIG. 2 depicts scatterplots of flow cytometry experiments showing the enriched CTCs stained with an antibody containing CD44 after treatment with various cytokines and cytokine cocktails.
In order to determine if selected cytokines influence cell proliferation of circulating tumour cells (CTCs), whole blood was collected from a patient with metastatic prostate cancer. Circulating tumour cells were enriched from whole blood using RosetteSep CTC Enrichment cocktail. Briefly, samples of whole blood were incubated with RosetteSep (anti CD 56 for 20 minutes at room temperature). Phosphate buffered saline containing 2% Fetal Bovine Serum was added to the samples and layered on a Ficoll Paque gradient. After centrifugation, the supernatant which contained CTCs was washed twice with PBS containing 2% FBS. Equal volumes of the cell suspension were seeded into a 24-well ultra-low attachment polystyrene plate. […] FIG. 3 depicts scatterplots of flow cytometry experiments enriched CTCs stained with an antibody containing CD133 after treatment with various cytokines and cytokine cocktails.
FIG. 6 depicts cell proliferation of subpopulations in cultured CTCs after exposure to various cytokines and cytokine cocktails. Cells were stained using an antibody containing CD44 PE.
Cells were stained using an antibody containing CD133 PE.

[2] = early use after coronary artery bypass surgery; cited from earlier work
breast cancer = details: perioperative, 9-18 month period of greatest risk, compared to other analgesics or NSAIDs post-operatively; cited from earlier work
[3] = tested on: B16 amelanotic melanoma model; details: cited from earlier work
[4] = tested on: enriched circulating tumour cells (CTCs); assay: Enriched CTCs from a patient with colorectal cancer cultured with IL-6, IL-8 or PDGFBB (EpCAM/CD133 flow cytometry); type: cell-based, human; details: for EpCAM+CD133+ gated subpopulation / EpCAM+CD133− gated subpopulation / EpCAM−CD133+ gated subpopulation / EpCAM−CD133− gated subpopulation: colorectal cancer patient
Source text: A blood sample was collected from a patient with colorectal cancer six days after surgery, Blood samples were enriched for CTCs using RosetteSep CD 56 kit according to standard protocol. Prior to cell culture, cells were stained with the following antibody cocktail: EpCAM A488, CD133PE, CD 45 PerCP Cy5.5, and Lgr5-PE-Vio770. Cells were either cultured in low attachment well plates without cytokines (control cells) or with three different cytokines (IL-6, IL-8 or PDGFBB).
Flow cytometry data was analysed using IDEAS software. Double events, out of focus events, CD45PercPCy5.5 positive cells, dead cells and non-nucleated events were eliminated from the fluorescence analysis of the cell population. Hoescht 33258 dye was used to stain nuclei of enriched CTCs. All experiments were stained with a fixable live/dead dye eFluor 506 to exclude dead cells.

| Molecule | CD24+CD44− cell subpopulation (HCT-15 cells) | CD44+CD24+ cell subpopulation (HCT-15 cells) | CD44+CD24− cell subpopulation (HCT-15 cells) | CD44−CD24− cell subpopulation (HCT-15 cells) | EpCAM+CD133+ gated subpopulation [1] [%] | EpCAM+CD133− gated subpopulation [1] [%] | EpCAM−CD133+ gated subpopulation [1] [%] | EpCAM−CD133− gated subpopulation [1] [%] | Cell population EpCAM+CD44+ ([1]; enriched CTCs) | Cell population EpCAM+CD44− ([1]; enriched CTCs) | Cell population EpCAM−CD44+ ([1]; enriched CTCs) | Cell population EpCAM−CD44− ([1]; enriched CTCs) | EpCAM+CD133+ gated subpopulation [4] | EpCAM+CD133− gated subpopulation [4] | EpCAM−CD133+ gated subpopulation [4] | EpCAM−CD133− gated subpopulation [4] | other results |
| --- | --- | --- | --- | --- | --- | --- | --- | --- | --- | --- | --- | --- | --- | --- | --- | --- | --- |
| CCCCC[C@H](O)/C=C/[C@H]1[C@H](O)CC(=O)[C@@H]1C/C=C\CCCC(=O)O [PGE-2, prostaglandin E2, reference compound] | 58.7 | 7.3 | 0.61 | 32.4 | 10.4 | 0 | 86.7 | 2.61 | 27.2 percentage of gated cells | 1.75 percentage of gated cells | 4.23 percentage of gated cells | 65.5 percentage of gated cells |  |  |  |  | enrichment of Irinotecan treated cells for cancer stem cells above non-cytokine treated controls (SW-620 cells): enriched; proliferation of EpCAM-CD44+ cell sub-population ([1]; enriched CTCs, 8 days culture): 4.23 % gated |
| CC(=O)Oc1ccccc1C(=O)O [aspirin] |  |  |  |  |  |  |  |  |  |  |  |  |  |  |  |  | survival compared to no aspirin [2]: superior survival |
| O=C(c1ccccc1)c1ccc2n1CCC2C(=O)O (stereo not shown) [ketorolac] |  |  |  |  |  |  |  |  |  |  |  |  |  |  |  |  | reduction in relapses (breast cancer): 5 fold |
| CCCCC[C@H](O)/C=C/[C@@H]1[C@H]2C/C(=C/CCCC(=O)O)O[C@H]2C[C@H]1O [prostacyclin] |  |  |  |  |  |  |  |  |  |  |  |  |  |  |  |  | hepatic metastases [3]: complete elimination; pulmonary metastases [3]: reduction |
| HGF: Hepatocyte Growth Factor, cytokine added to cultured cancer cells | 58.6 | 3.29 | 0.31 | 35.9 | 17.2 | 0.2 | 80.8 | 1.58 | 16.8 percentage of gated cells | 4.89 percentage of gated cells | 2.12 percentage of gated cells | 74.9 percentage of gated cells |  |  |  |  |  |
| IL-6: cytokine Interleukin 6 added to cultured cancer cells | 49.1 | 5.63 | 1.35 | 43.2 | 23.5 | 0 | 74.7 | 1.46 | 35.6 percentage of gated cells | 2.66 percentage of gated cells | 6.14 percentage of gated cells | 55 percentage of gated cells | 0.1 percentages of gated subpopulations | 2.98 percentages of gated subpopulations | 0.12 percentages of gated subpopulations | 90.5 percentages of gated subpopulations | enrichment of Irinotecan treated cells for cancer stem cells above non-cytokine treated controls (SW-620 cells): enriched; increase in the EpCAM+CD133− subpopulation (significance, p<0.05) ([4]; compared to control): statistically significant; percentage of cells positive for both EpCAM and CD44 ([1]; enriched CTCs, 8 days culture): highest; proliferation of EpCAM-CD44+ cell sub-population ([1]; enriched CTCs, 8 days culture): 6.14 % gated |
| Il-8: cytokine IL-8 added to cultured CTCs |  |  |  |  |  |  |  |  |  |  |  |  | 0.13 percentages of gated subpopulations | 2.51 percentages of gated subpopulations | 0.09 percentages of gated subpopulations | 90.8 percentages of gated subpopulations |  |
| PDGFBB: Platelet derived growth factor BB added to cultured CTCs (protein, UniProt P01127 82-190, looked up, BB homodimer, Platelet derived growth factor BB added to cultured CTCs) Platelet-derived growth …: SLGSLTIAEPAMIAECKTRTEVFEISRRLIDRTNANFLVWPPCVEVQRCSGCCNNRNVQCRPTQVQLRPVQVRKIEIVRKKPIFKKATVTLEDHLACKCETVAAARPVT |  |  |  |  |  |  |  |  |  |  |  |  | 0.18 percentages of gated subpopulations | 2.29 percentages of gated subpopulations | 0.1 percentages of gated subpopulations | 90.5 percentages of gated subpopulations |  |
